Results published in patent US20150087627A1, “COMBINATION OF KINASE INHIBITORS AND USES THEREOF” (Intellikine LLC, priority 2011, published 2015).
Structures can show the parent of a compound that is named as a salt. Where two headings read alike, the source gives them in different places.

Experiments:
PI3K δ = target: T1, PI3K δ (Homo sapiens, UniProt O00329); assay: PI 3-Kinase (human) HTRF assay, PI3K δ; type: biochemical; settings: read-out: PI3K δ IC50
T1 construct: purchased Upstate / Millipore Corporation
T1 sequence (O00329 whole entry): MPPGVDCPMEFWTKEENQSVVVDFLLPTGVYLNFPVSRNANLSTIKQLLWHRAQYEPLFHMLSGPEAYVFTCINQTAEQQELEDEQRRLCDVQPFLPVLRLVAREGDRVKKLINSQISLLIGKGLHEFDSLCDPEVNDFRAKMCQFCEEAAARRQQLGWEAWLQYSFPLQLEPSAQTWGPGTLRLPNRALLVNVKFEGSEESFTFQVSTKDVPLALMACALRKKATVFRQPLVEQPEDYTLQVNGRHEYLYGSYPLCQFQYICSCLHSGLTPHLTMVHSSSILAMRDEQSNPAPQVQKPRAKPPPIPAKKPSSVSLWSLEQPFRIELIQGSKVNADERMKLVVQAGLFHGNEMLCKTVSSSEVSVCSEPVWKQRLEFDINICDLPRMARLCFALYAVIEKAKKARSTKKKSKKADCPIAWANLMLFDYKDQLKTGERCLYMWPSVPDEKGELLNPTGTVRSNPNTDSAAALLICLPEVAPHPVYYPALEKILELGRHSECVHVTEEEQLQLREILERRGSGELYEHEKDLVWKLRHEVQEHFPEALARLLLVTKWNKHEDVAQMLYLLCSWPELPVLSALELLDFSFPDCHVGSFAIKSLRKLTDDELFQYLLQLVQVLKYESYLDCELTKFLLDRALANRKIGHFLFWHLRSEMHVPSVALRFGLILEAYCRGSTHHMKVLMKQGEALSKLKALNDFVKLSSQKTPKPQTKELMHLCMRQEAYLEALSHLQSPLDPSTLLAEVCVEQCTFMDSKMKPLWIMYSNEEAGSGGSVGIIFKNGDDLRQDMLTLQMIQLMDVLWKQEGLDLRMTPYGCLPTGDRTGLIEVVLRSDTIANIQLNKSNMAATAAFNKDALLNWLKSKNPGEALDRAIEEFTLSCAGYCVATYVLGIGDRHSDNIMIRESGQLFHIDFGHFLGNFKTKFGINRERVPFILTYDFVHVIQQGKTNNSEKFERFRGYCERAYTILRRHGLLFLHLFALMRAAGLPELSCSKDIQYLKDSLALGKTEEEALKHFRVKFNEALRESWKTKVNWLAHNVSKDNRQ
T1 sequence (P27986 whole entry partner): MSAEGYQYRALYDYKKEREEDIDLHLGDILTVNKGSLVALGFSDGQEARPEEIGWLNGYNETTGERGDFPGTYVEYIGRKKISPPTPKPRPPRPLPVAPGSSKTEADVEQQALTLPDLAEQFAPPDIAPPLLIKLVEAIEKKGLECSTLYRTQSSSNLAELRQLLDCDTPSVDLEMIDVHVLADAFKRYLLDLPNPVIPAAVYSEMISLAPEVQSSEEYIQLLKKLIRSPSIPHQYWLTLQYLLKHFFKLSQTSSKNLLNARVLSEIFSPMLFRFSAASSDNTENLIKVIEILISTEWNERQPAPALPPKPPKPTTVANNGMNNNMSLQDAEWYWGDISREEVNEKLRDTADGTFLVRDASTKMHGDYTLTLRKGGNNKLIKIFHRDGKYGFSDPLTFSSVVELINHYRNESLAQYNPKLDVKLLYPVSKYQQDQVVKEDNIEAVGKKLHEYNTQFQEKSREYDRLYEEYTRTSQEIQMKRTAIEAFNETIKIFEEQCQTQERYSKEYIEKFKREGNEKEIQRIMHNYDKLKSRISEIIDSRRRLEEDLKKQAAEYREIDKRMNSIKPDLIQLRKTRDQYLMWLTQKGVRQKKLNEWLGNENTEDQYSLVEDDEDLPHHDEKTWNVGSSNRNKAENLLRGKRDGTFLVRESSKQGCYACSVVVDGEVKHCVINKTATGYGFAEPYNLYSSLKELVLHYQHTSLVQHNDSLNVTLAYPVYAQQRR

mTOR = target: T2, mTOR (Homo sapiens, UniProt P42345); assay: mTOR kinase inhibition assay (radiometric or LanthaScreen TR-FRET); type: biochemical; settings: read-out: mTORC IC50
T2 construct: purchased Invitrogen
T2 sequence (P42345 1360-2549 limits assumed): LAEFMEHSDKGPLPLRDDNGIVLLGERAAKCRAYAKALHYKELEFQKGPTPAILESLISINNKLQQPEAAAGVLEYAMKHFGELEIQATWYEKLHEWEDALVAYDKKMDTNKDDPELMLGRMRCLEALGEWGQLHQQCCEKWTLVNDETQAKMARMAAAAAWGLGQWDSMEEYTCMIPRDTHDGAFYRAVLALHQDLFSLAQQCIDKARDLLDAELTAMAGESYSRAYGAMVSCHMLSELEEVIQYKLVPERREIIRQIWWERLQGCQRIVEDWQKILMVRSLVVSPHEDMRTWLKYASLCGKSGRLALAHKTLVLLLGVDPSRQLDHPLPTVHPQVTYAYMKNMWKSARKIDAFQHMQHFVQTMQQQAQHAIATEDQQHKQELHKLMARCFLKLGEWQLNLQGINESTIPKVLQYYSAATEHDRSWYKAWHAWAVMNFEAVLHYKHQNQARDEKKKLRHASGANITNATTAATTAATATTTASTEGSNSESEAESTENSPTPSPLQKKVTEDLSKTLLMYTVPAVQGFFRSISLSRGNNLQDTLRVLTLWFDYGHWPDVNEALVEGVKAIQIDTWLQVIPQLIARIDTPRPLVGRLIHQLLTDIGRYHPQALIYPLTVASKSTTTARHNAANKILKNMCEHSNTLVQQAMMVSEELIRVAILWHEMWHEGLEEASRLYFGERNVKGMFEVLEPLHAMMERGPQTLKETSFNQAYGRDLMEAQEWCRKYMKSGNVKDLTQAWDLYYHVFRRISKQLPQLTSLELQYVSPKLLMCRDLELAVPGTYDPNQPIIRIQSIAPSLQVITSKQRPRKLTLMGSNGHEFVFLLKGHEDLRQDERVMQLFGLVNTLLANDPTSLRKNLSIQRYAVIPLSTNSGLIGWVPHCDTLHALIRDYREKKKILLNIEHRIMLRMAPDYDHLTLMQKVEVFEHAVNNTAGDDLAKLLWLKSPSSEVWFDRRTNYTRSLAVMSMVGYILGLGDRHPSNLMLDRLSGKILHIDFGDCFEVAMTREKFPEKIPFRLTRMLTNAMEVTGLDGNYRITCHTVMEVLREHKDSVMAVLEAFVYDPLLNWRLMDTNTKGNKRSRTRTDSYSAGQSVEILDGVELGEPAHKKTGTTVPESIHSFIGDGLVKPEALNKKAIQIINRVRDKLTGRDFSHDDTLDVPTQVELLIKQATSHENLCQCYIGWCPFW

PI3K α (p110α/p85α) = target: T3, PI3K α (p110α/p85α) (Homo sapiens, UniProt P42336); assay: PI 3-Kinase (human) HTRF assay, PI3K α; type: biochemical
T3 construct: purchased Upstate / Millipore Corporation

PI3K β (p110β/p85α) = target: T4, PI3K β (p110β/p85α) (Homo sapiens, UniProt P42338); assay: PI 3-Kinase (human) HTRF assay, PI3K β; type: biochemical
T4 construct: purchased Upstate / Millipore Corporation

PI3K γ (p110γ) = target: T5, PI3K γ (p110γ) (Homo sapiens, UniProt P48736); assay: PI 3-Kinase (human) HTRF assay, PI3K γ; type: biochemical
T5 construct: purchased Upstate / Millipore Corporation
T5 sequence (P48736 whole entry): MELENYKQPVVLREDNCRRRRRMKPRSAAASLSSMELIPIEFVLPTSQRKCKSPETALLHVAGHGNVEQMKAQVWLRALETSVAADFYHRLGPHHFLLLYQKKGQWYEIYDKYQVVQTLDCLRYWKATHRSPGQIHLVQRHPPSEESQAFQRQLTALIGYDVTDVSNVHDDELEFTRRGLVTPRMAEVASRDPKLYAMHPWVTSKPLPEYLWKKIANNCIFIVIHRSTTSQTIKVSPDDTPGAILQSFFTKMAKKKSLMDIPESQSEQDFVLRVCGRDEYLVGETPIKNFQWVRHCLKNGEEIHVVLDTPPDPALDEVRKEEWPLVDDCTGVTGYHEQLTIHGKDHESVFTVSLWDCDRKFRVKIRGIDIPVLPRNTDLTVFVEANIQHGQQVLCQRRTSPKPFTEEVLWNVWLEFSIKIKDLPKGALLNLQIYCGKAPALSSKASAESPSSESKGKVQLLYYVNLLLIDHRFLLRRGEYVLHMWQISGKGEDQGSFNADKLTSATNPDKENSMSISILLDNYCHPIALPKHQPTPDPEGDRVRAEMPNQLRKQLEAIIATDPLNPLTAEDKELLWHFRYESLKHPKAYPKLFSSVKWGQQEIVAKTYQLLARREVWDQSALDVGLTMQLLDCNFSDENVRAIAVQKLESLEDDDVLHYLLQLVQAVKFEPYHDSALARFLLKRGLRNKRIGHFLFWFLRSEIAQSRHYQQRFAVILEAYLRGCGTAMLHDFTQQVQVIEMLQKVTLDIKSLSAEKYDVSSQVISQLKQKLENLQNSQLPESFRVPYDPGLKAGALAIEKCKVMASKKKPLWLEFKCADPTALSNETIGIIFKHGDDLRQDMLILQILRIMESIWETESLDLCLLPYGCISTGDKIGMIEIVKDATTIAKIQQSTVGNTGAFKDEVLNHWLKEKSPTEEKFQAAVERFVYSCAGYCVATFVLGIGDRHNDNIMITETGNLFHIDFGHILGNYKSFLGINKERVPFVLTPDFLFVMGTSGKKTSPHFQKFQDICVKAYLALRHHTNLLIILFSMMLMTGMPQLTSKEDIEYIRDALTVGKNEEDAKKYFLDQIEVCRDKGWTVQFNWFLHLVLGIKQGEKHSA
Experimental: Briefly, the assay is a time resolved FRET assay that indirectly measures PIP3 product formed by the activity of a PI3-K. The kinase reaction is performed in a microtiter plate (e.g., a 384 well microtiter plate). The total reaction volume is approximately 20 ul per well. In the first step, each well receives 2 ul of test compound in 20% dimethylsulphoxide resulting in a 2% DMSO final concentration. […] The plate is sealed and incubated for 15 minutes at room temperature. […] The plate is sealed and incubated for 1 hour at room temperature. The reaction is stopped by adding 5 ul of Stop Solution per well and then 5 ul of Detection Mix is added per well. The plate is sealed, incubated for 1 hour at room temperature, and then read on an appropriate plate reader. Data is analyzed and IC50s are generated using GraphPad Prism 5.

PC3 = PC3 proliferation; type: cell-based; settings: Homo sapiens, PC-3
T47D = T47D proliferation; type: cell-based; settings: Homo sapiens; T47D cell line
MDA-MB-361 = MDA-MB-361 proliferation; type: cell-based
[1] = clinical use of the marketed drug; cited from earlier work
[2] = PC3 cell line (compounds before 438), read-out: PC3 proliferation (nM)*
[3] = Table 2 (mTor inhibitor compounds), PC3, read-out: PC3 proliferation
[4] = Table 4 (PI3K α inhibitors), read-out: PI3K α IC50
[5] = Table 4 (PI3K α inhibitors), read-out: PI3K β IC50
[6] = Table 4 (PI3K α inhibitors), read-out: PI3K γ IC50

| SMILES | IC50 (PI3K δ) | IC50 (mTOR) | IC50 (PI3K α (p110α/p85α); read-out: PI3K α IC50) | IC50 (PI3K β (p110β/p85α); read-out: PI3K β IC50) | IC50 (PI3K γ (p110γ); read-out: PI3K γ IC50) | IC50 (T47D) | other results |
| --- | --- | --- | --- | --- | --- | --- | --- |
| CC(=O)Nc1nc2ccc(-c3ccc4nccc(-c5ccncc5)c4c3)cc2s1 [Compound 2] | > 10000 nM | > 10000 nM | < 1000 nM | > 10000 nM | < 1000 nM | – | IC50 (PC3; [2]): < 10000 nM |
| Nc1nc2ccc(-c3ccc4nccc(-c5ccncc5)c4c3)cc2o1 [Compound 4] | < 100 nM | < 1000 nM | < 100 nM | < 100 nM | – | – | IC50 (PC3; [2]): < 100 nM |
| Nc1nc2cc(-c3ccc4ncc(-c5ccncc5)n4c3)ccc2o1 [Compound 6] | < 1000 nM | < 10000 nM | < 100 nM | < 10000 nM | – | < 1000 nM | IC50 (PC3; [2]): < 10000 nM |
| Cn1c(=O)n(-c2ccc(C(C)(C)C#N)cc2)c2c3cc(-c4ccc5oc(N)nc5c4)ccc3ncc21 [Compound 7] | < 100 nM | < 100 nM | < 100 nM | < 100 nM | < 100 nM | – | IC50 (PC3; [2]): < 100 nM |
| Nc1nc2cc(-c3ccc4ncc(-c5ccncc5)n4n3)ccc2o1 [Compound 10] | – | < 1000 nM | < 100 nM | < 1000 nM | < 100 nM | < 1000 nM | IC50 (PC3; [2]): < 1000 nM |
| Nc1nc2cc(-c3ccc4ncn(-c5ccccc5)c4c3)ccc2o1 [Compound 11] | – | > 10000 nM | < 100 nM | < 10000 nM | – | – | IC50 (PC3; [2]): > 10000 nM |
| Nc1noc2cc(-c3ccc4nccc(-c5ccncc5)c4c3)ccc12 [Compound 16] | < 10000 nM | – | < 100 nM | < 10000 nM | – | < 1000 nM | – |
| CC(C)n1nc(-c2cc3ccc(C#N)cc3[nH]2)c2c(N)ncnc21 [Compound 24] | – | – | – | – | – | – | IC50 (PC3; [3]): > 500 nM |
| CC(C)n1nc(-c2cc3ccc(C(N)=O)cc3[nH]2)c2c(N)ncnc21 [Compound 25] | – | – | – | – | – | – | IC50 (PC3; [3]): > 500 nM |
| CN1CCC(Nc2ncnc3ccc(-c4ccc5oc(N)nc5c4)cc23)CC1 [Compound 35] | < 100 nM | < 10000 nM | < 100 nM | – | < 100 nM | < 10000 nM | – |
| CN1CCC(n2cnc3ccc(-c4ccc5oc(N)nc5c4)cc3c2=O)CC1 [Compound 36] | < 10000 nM | < 10000 nM | < 100 nM | – | > 10000 nM | < 10000 nM | – |
| Cn1cc(-c2cnc3ccc(-c4ccc5oc(N)nc5c4)cn23)cn1 [Compound 41] | < 1000 nM | < 10000 nM | < 100 nM | – | – | < 10000 nM | – |
| CN1CCN(c2ccc(-c3cnc4ccc(-c5ccc6oc(N)nc6c5)cn34)cn2)CC1 [Compound 42] | < 1000 nM | > 10000 nM | < 100 nM | – | < 1000 nM | < 10000 nM | – |
| Nc1nc2cc(-c3ccc4ncc(OC5CCOCC5)nc4c3)ccc2o1 [Compound 49] | < 10000 nM | < 10000 nM | < 100 nM | – | < 1000 nM | < 10000 nM | – |
| Nc1nc2cc(-c3ccc4ncc(-c5ccc6nc(N)oc6c5)n4c3)ccc2o1 [Compound 50] | < 10000 nM | > 10000 nM | < 100 nM | – | < 100 nM | < 10000 nM | – |
| Nc1nc2cc(-c3ccc4ncc(C(=O)N5CCOCC5)n4c3)ccc2o1 [Compound 54] | < 10000 nM | < 10000 nM | – | < 10000 nM | – | < 10000 nM | – |
| Cc1nc2ccc(-c3ccc4oc(N)nc4c3)nn2c1-c1ccncc1 [Compound 56] | > 10000 nM | < 1000 nM | < 100 nM | < 1000 nM | < 100 nM | < 10000 nM | – |
| Nc1nc2cc(-c3ccc4ncc(N5CCOCC5)nc4c3)ccc2o1 [Compound 64] | > 10000 nM | < 10000 nM | < 100 nM | < 1000 nM | < 100 nM | < 10000 nM | – |
| CN1CCN(c2cnc3ccc(-c4ccc5oc(N)nc5c4)cc3n2)CC1 [Compound 65] | < 10000 nM | > 10000 nM | < 100 nM | < 100 nM | < 1000 nM | < 10000 nM | – |
| CN1CC(C(=O)N2CCC(Nc3ncnc4ccc(-c5ccc6oc(N)nc6c5)cc34)CC2)C1 [Compound 138] | < 100 nM | – | < 100 nM | < 1000 nM | < 1000 nM | > 10000 nM | – |
| CC1CN(c2cnc3ccc(-c4ccc5oc(N)nc5c4)cc3n2)CCN1 (centres unmarked) [Compound 149] | < 10000 nM | – | < 100 nM | < 100 nM | – | > 10000 nM | – |
| CN1CCC(N(C)c2cnc3ccc(-c4ccc5oc(N)nc5c4)cc3n2)CC1 [Compound 151] | < 1000 nM | – | – | – | – | < 10000 nM | IC50 (PI3K α (p110α/p85α)): < 100 nM; IC50 (PI3K β (p110β/p85α); PI3K β IC50 (nM)): < 10000 nM; IC50 (PI3K γ (p110γ); PI3K γ IC50 (nM)): < 10000 nM |
| Nc1nc2cc(-c3ccc4ncc(N5CCCCC5)nc4c3)ccc2o1 [Compound 175] | > 10000 nM | – | < 100 nM | > 10000 nM | < 10000 nM | > 10000 nM | – |
| Cc1cn(-c2cnc3ccc(-c4ccc5oc(N)nc5c4)cc3n2)cn1 [Compound 177] | > 10000 nM | – | < 100 nM | > 10000 nM | < 1000 nM | > 10000 nM | – |
| Nc1nc2cc(-c3ccc4ncc(C(=O)Nc5cccnc5)n4c3)ccc2o1 [Compound 190] | < 1000 nM | – | < 100 nM | > 10000 nM | < 100 nM | > 10000 nM | – |
| COc1ncc(-c2ccc3ncc(C(=O)N4CCOCC4)n3c2)cc1NS(=O)(=O)c1cccnc1 [Compound 462] | < 100 nM | – | < 100 nM | < 100 nM | < 100 nM | – | IC50 (MDA-MB-361; Homo sapiens, MDA-MB-361, Starting with compound 438, proliferation data was obtained using an MDA-MB-361 cell line, read-out: PC3 proliferation (nM)*): < 1000 nM |
| Nc1nc2cc(-c3ccc4ncc(N5CCNC(=O)C5)cc4n3)ccc2o1 [Compound 580] | – | – | – | – | – | – | IC50 (PI3K δ; Table 4 (PI3K α inhibitors)): < 10000 nM; IC50 (MDA-MB-361; Homo sapiens, MDA-MB-361, Table 4 (PI3K α inhibitors), MDA-MB-361, read-out: MDA-MB-361 proliferation (nM)*): < 1000 nM; IC50 (PI3K α (p110α/p85α); [4]): < 100 nM; IC50 (PI3K β (p110β/p85α); [5]): < 1000 nM; IC50 (PI3K γ (p110γ); [6]): < 100 nM |
| C[C@H]1CN(C2CN(c3cnc4ccc(-c5ccc6oc(N)nc6c5)nc4n3)C2)CCN1C [Compound 606] | – | – | – | – | – | – | IC50 (PI3K δ; Table 4 (PI3K α inhibitors)): < 1000 nM; IC50 (mTOR; Table 4 (PI3K α inhibitors)): > 10000 nM; IC50 (MDA-MB-361; Table 4 (PI3K α inhibitors), MDA-MB-361, read-out: MDA-MB-361 proliferation (nM)*): < 1000 nM; IC50 (PI3K α (p110α/p85α); [4]): < 100 nM; IC50 (PI3K β (p110β/p85α); [5]): < 10000 nM; IC50 (PI3K γ (p110γ); [6]): < 10000 nM |
| CC[C@@]1(O)C(=O)OCc2c1cc1n(c2=O)Cc2cc3c(CN(C)C)c(O)ccc3nc2-1 [topotecan HCl, (S)-10-[(dimethylamino)methyl]-4-ethyl-4,9-dihydroxy-1H-pyrano[3′,4′,6,7]-indolizino[1,2-b]quinoline-3,14-(4H,12H)-dione monohydrochloride] | – | – | – | – | – | – | dose limiting or most common side effect [1]: myelosuppression, primarily neutropenia |
| CC[C@]1(O)C[C@H]2CN(CCc3c([nH]c4ccccc34)[C@@](C(=O)OC)(c3cc4c(cc3OC)N(C=O)[C@H]3[C@@](O)(C(=O)OC)[C@H](OC(C)=O)[C@]5(CC)C=CCN6CC[C@]43[C@@H]65)C2)C1 [vincristine, vincaleukoblastine, 22-oxo-, sulfate] | – | – | – | – | – | – | dose limiting or most common side effect [1]: Alopecia and neurologic effects |
